# Experimental data: patent US6028061A, “Angiogenesis inhibitors and use thereof” (Children's Medical Center Corp, priority 1998, dated 2000)
# “Also recorded” adds a separate entry of the source.
# Experiments:
# FGF-2 [1] = assay: Isothermal titration calorimetry of glycosaminoglycan binding to FGF-2; conditions: for Kd / n, average number of FGF-2 molecules occupying a single glycosaminoglycan chain (stoichiometry): 50 mM sodium phosphate pH 7.4, 100 mM NaCl, 25° C; for FGF-2 binding (in words): isothermal titration calorimetry
# Description: Interaction of glycosaminoglycans and their derivatives with FGF-2. Isothermal titration calorimetry was performed in 50 mM sodium phosphate buffer, pH 7.4, containing 100 mM sodium chloride at 25° C. as previously described (15).
# Determination of the FGF-2 binding affinity of glycosaminoglycans and their derivatives. Isothermal titration calorimetry was performed with heparin oligosaccharides, herapin, acharan sulfate and N-sulfoacharan sulfate. The heat of interaction (ΔH) is directly measured in this experiment. From this heat of interaction the Kd, and n (stoichiometry) of interaction can be deduced. The minimum FGF-2 binding site is a tetra- or hexasaccharide. […] The n value is consistent with the molecular weight of each ligand (Table 2).
# [2] = test system: FGF-2 mitogenic activity in F32 cells; assay: FGF-2 mitogenicity assay in F32 cells, absence of added heparin ([3H]-thymidine incorporation; stimulation of FGF-2 activity); assay type: cell-based; conditions: for [3H]-thymidine incorporation, controls alone: F32 cells, heparin (alone) and FGF-2 (alone) controls
# Description: (§1) Assay of FGF-2 mitogenic activity, FGF-2 mitogenicity assays were performed in F32 cells that express FGF-receptor 1 (FGF-R1)(16) but no detectable levels of heparan sulfate proteoglycans (17). […] Tested glycosaminoglycans were added in concentrations ranging from 1-5000 ng/ml. Proliferation was measured after 40 h incubation in 200 μl medium (RPM1 1640, 10% heat-inactivated newborn calf serum) in the presence of a 1 μCi/well pulse of [^3 H]-thymidine during the final 6 h of the incubation. Radioactivity incorporated into DNA was quantified by scintillation counting, MTT, 3-[4,5-dimethylthiazol-2-yl]-2,5-diphenyl tetrazolium bromide (Thiazole blue), used to determine cell viability, was from Sigma Chemical (St. Louis, Mo.).
# (§2) Influence of glycosaminoglycans and their derivatives on FGF-2 mitogenic activity. The direct influence of acharan sulfate and its derivative on FGF-2 mitogenic activity was measured in the absence of added heparin. […] The effect of acharan sulfate on cell viability was assessed by measuring the formation of a chromogen from MTT, a tetrazolium dye that is converted solely by living cells (18). […] Thus, the inhibition of mitogenicity is not due to toxicity leading to reduced cell number.
# FGF-2 [3] = conditions: cited from earlier work
# [4] = test system: FGF-2 mitogenic activity in F32 cells; assay: FGF-2 mitogenicity assay in F32 cells, presence of 10 ng/ml heparin ([3H]-thymidine incorporation; inhibition of heparin-mediated activity); assay type: cell-based; conditions: for FGF-2 mitogenicity in the presence of heparin (in words): 10 ng/ml heparin, 150 pM FGF-2, 40 h
# Description: as §1, §2
# F32 cells = assay: MTT cell viability assay; assay type: cell-based; conditions: 40 h incubation, same concentrations as in the mitogenicity assays
# Description: as §1, §2
Substance,Kd (FGF-2 [1]) [nM],"n, average number of FGF-2 molecules occupying a single glycosaminoglycan chain (stoichiometry) (FGF-2 [1])",FGF-2 binding (in words) (FGF-2 [1]),"[3H]-thymidine incorporation, controls alone [2]",FGF-2 mitogenicity in the presence of heparin (in words) [4],also measured
"ΔUAp2S(1→[4)GlcNp2S6S(1→4)IdoAp2S(→]m=1-5) [dodecasaccharide, reference compound]",–,1.8,–,–,–,–
→4)GlcNpAc(1→4)IdoAp2S(1→ [Acharan sulfate],4500,13.4,binds very poorly; also recorded: very weak,–,markedly decreased the mitogenic activity in a concentration dependent manner; also recorded: inhibited FGF-2 mitogenicity in the presence of heparin,"Kd (FGF-2 [1]; listed as acharan sulfate): > 4000 nM; IC50 of inhibition of FGF-2 mitogenicity ([4]; in the presence of 10 ng/ml heparin): ~ 400 ng/ml; cell viability (number of living cells, MTT) (F32 cells): no reduction in the number of living cells"
"FGF-2: growth factor, control alone in F32 mitogenicity assay",–,–,–,~ 750 cpm,–,–

# More lines, main results first:
Kd (FGF-2 [1]) [nM],"n, average number of FGF-2 molecules occupying a single glycosaminoglycan chain (stoichiometry) (FGF-2 [1])",Substance,FGF-2 binding (in words) (FGF-2 [1]),"[3H]-thymidine incorporation, controls alone [2]",FGF-2 mitogenicity in the presence of heparin (in words) [4],also measured
36,–,Heparin [reference compound],bind FGF-2 most tightly,~ 750 cpm,–,"mitogenic activity (literature, in words) (FGF-2 [3]): known to enhance the activity of FGF-2"
36,3.6,Low molecular weight heparin [reference compound],–,–,–,–
90,4.4,→4)GlcNp2S(1→4)IdoAp2S(1→ [N-sulfoacharan sulfate],bind FGF-2 most tightly; also recorded: tightly bound multiple FGF-2 molecules,–,no discernible effect on FGF-2 mitogenicity induced by heparin,"FGF-2 mitogenic activity (in words) ([2]; absence of added heparin): about the same activity as the syndecan-1 ectodomain; also recorded: minimal mitogenic activity compared with that of heparin; activity relative to heparin, fold less active ([2]; absence of added heparin, on a weight basis): about 150 fold; FGF-2 mitogenicity in the presence of heparin (in words) ([4]; listed as N-sulfoacharan): failed to further stimulate FGF-2 mitogenicity"
